Data: patent publication US20200281923A1, “USE OF PARP INHIBITOR IN TREATING CHEMOTHERAPY-RESISTANT OVARIAN CANCER OR BREAST CANCER” (JIANGSU HENGRUI MEDICINE CO., LTD., priority 2017, published 2020)

Columns and labels:
advanced prostate cancer = advanced prostate cancer patients with DNA repair gene mutations; phase II clinical trial; cited from earlier work
recurrent ovarian cancer = test: Phase I clinical trial of compound A alone in recurrent chemotherapy-resistant ovarian cancer; type: in vivo, human; conditions: daily dose of 120 mg
Excerpt: Objective response rate (ORR) refers to the proportion of patients whose tumor shrinks to a certain extent and remains for a certain period of time, including cases of CR and PR. The response evaluation criteria in solid tumors (RECIST 1.1 criteria) are employed to assess tumor objective response. The subject must have measurable tumor lesions at baseline. The efficacy assessment criteria are classified into complete response (CR), partial response (PR), stable disease (SD), and progressive disease (PD) according to the RECIST 1.1 criteria.
Disease control rate (DCR) refers to the percentage of confirmed cases of complete response, partial response and stable disease (≥eight weeks) in patients with evaluable efficacy.
In the phase I clinical trial, the dose of compound A was 120 mg/d and above. 23 patients with recurrent ovarian cancer diagnosed by histology or cytology, who had received standard treatment failure, were enrolled. These patients had been subjected to at least second-line systemic chemotherapy during the recurrence and metastasis stage of ovarian cancer. The chemotherapy regimen was a platinum-based chemotherapy regimen. These patients were platinum-based treatment-resistant, or were intolerant to the chemotherapy toxicity during the treatment.
Compound A: the initial dose was 10 mg, 20 mg, 40 mg, 60 mg, 80 mg, 100 mg or 150 mg, administrated orally twice a day; or 120 mg or 160 mg, administrated orally once a day.

[1] = platinum-resistant ovarian cancer without BRCA mutations, 13 cases
[2] = recurrent platinum-resistant ovarian cancer, 22 evaluable cases out of 23

Row | SMILES | response (advanced prostate cancer) [%] | disease control rate (DCR) (recurrent ovarian cancer; [1]) [%] | objective response rate (ORR) (recurrent ovarian cancer; [1]) [%] | disease control rate (DCR) (recurrent ovarian cancer; [2]) [%] | objective response rate (ORR) (recurrent ovarian cancer; [2]) [%]
1 | O=C(c1cc(Cc2n[nH]c(=O)c3ccccc23)ccc1F)N1CCN(C(=O)C2CC2)CC1 [Olaparib] | 88 |  |  |  | 
2 | O=C(c1cc(Cc2n[nH]c(=O)c3ccccc23)ccc1F)N1CCn2nc(C(F)(F)F)nc2C1 [compound A] |  | 84.6 | 15.4 | 81.8 | 18.2
